Patent US7074789B2, “Kinase inhibitors” (Amgen Inc., priority 1999, dated 2006)

Key:
Assay type in all cases: biochemical
c-Met = target: T1, c-Met (Homo sapiens, UniProt P08581); assay: Kinase inhibition assay (33P transfer), c-Met; details: Table 2, kinase inhibition class; read-out: Met-1
T1 construct: Kinases are expressed as either kinase domains or full length constructs; made in house
Method in brief: (§1)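 Activity read as 33P incorporation from ATP into poly(Glu,Tyr) 4:1 or poly(Arg,Ser) 3:1 substrate bound to microtiter plates, measured by scintillation after acid washing. Enzymes were affinity-purified GST or polyHis fusions (kinase domain or full length) from E. coli or baculovirus; IC50 = 50% reduction in labelled phosphate.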

Itk = target: T2, Itk (Homo sapiens, UniProt Q08881); assay: Kinase inhibition assay (33P transfer), Itk; details: Table 3; read-out: Itk-1
T2 construct: Kinases are expressed as either kinase domains or full length constructs; made in house
T2 sequence (Q08881 1-620): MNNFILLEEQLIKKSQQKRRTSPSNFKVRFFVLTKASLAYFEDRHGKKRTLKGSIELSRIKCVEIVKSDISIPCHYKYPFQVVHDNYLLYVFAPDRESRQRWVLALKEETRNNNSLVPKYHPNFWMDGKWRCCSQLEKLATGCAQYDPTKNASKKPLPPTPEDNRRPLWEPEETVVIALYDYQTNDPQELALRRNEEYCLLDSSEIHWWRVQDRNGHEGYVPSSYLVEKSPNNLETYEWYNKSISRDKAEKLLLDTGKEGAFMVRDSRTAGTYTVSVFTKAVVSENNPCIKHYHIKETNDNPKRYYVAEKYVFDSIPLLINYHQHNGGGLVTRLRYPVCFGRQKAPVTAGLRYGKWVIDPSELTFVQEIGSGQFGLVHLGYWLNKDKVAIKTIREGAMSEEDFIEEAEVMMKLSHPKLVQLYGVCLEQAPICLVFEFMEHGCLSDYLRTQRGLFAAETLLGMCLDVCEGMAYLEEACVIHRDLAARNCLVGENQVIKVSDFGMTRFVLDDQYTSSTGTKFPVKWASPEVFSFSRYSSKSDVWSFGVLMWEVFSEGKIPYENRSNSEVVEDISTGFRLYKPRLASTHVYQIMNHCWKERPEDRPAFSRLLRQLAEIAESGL
Method in brief: as §1

EGFR = target: T3, EGFR (Homo sapiens, UniProt P00533); assay: Kinase inhibition assay (33P transfer), EGFR; details: Table 2, kinase inhibition class; read-out: EGFR-1
T3 construct: Kinases are expressed as either kinase domains or full length constructs; made in house
T3 sequence (P00533 25-1210, species assumed): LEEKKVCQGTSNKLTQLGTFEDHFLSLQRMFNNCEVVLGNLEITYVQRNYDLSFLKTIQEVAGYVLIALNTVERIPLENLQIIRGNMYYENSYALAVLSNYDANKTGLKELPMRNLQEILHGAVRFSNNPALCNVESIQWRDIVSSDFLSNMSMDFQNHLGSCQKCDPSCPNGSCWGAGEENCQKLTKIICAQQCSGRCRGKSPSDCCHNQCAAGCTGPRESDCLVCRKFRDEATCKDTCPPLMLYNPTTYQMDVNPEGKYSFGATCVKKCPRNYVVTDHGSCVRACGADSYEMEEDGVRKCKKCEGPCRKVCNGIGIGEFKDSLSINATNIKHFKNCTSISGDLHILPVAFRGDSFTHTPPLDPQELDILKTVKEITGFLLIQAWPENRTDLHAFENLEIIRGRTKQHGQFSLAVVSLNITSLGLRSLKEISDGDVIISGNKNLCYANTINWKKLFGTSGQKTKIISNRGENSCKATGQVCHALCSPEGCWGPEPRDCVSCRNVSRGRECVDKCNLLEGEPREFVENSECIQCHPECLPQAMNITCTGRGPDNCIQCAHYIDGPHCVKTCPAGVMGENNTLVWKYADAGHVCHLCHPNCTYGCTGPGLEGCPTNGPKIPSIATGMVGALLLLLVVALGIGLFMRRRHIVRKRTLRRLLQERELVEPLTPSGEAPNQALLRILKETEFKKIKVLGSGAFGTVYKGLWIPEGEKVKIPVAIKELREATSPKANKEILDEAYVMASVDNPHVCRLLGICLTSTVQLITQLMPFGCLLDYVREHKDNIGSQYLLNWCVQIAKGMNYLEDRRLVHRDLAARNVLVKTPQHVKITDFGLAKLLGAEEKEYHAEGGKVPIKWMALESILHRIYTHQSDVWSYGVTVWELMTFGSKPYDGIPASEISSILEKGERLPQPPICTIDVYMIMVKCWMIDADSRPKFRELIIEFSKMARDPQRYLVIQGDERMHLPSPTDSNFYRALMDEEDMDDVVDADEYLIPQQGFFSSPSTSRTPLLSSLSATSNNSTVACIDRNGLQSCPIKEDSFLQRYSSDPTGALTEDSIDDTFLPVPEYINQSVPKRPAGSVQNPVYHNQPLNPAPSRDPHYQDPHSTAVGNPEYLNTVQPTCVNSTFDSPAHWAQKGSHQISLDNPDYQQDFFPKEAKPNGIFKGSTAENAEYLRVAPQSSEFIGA
Method in brief: as §1

AKT = target: T4, AKT (Homo sapiens, UniProt Q9Y243); assay: Kinase inhibition assay (33P transfer), AKT; details: Table 2, kinase inhibition class; read-out: AKT3-1
T4 construct: Kinases are expressed as either kinase domains or full length constructs; made in house
Method in brief: (§2)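 GST/His-tagged kinase (domain or full length; E. coli or baculovirus) + [33P]ATP on plates coated with poly(Glu,Tyr) 4:1 or poly(Arg,Ser) 3:1; incubate, wash 0.5% H3PO4, add scintillant, count.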

Kdr = target: T5, Kdr (Homo sapiens, UniProt P35968); assay: Kinase inhibition assay (33P transfer), Kdr; details: Table 3; read-out: KDR-1
T5 construct: Kinases are expressed as either kinase domains or full length constructs; made in house
Method in brief: as §2

Lck = target: T6, Lck (Homo sapiens, UniProt P06239); assay: Kinase inhibition assay (33P transfer), Lck; details: Table 3; read-out: Lck-1
T6 construct: Kinases are expressed as either kinase domains or full length constructs; made in house
Method in brief: as §2

IGFR-1 = target: T7, IGFR-1 (Homo sapiens, UniProt P08069); assay: Kinase inhibition assay (33P transfer), IGFR-1; details: Table 2, kinase inhibition class
T7 construct: Kinases are expressed as either kinase domains or full length constructs; made in house
T7 sequence (P08069 31-1367): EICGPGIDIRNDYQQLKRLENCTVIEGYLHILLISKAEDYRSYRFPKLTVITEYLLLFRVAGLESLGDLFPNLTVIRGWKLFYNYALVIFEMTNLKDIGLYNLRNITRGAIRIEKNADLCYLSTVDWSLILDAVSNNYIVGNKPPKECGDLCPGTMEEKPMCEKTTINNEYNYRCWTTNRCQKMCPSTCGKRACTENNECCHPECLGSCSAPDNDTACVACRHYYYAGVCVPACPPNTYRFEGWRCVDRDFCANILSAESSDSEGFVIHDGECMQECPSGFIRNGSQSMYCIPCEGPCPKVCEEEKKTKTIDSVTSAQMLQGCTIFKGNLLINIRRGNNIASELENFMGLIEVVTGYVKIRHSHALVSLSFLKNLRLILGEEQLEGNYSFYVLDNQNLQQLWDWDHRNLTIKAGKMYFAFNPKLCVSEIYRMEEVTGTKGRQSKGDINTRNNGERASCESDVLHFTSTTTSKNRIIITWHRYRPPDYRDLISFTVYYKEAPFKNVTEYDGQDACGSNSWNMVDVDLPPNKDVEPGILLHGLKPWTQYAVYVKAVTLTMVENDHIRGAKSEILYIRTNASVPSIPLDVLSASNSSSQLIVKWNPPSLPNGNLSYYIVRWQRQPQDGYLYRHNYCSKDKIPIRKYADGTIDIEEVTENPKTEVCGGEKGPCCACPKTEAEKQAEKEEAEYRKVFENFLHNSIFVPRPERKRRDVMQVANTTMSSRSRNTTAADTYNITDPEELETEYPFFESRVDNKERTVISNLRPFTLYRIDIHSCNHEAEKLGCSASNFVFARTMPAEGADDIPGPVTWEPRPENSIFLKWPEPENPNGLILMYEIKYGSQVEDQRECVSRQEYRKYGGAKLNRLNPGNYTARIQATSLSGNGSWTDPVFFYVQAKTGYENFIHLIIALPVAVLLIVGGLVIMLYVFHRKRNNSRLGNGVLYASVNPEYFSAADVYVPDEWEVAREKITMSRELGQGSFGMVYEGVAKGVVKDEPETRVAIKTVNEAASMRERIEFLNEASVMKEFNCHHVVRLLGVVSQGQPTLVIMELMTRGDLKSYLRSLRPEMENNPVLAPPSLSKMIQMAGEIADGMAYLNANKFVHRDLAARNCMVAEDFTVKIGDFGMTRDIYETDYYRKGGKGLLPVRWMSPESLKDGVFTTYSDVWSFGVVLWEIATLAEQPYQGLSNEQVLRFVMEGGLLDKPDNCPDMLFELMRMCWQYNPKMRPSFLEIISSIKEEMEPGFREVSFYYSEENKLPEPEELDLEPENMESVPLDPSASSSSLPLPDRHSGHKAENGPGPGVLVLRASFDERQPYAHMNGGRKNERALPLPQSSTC

Zap-70 = target: T8, Zap-70 (Homo sapiens, UniProt P43403); assay: Kinase inhibition assay (33P transfer), Zap-70; details: Table 3; read-out: Zap-1
T8 construct: Kinases are expressed as either kinase domains or full length constructs; made in house
T8 sequence (P43403 1-619): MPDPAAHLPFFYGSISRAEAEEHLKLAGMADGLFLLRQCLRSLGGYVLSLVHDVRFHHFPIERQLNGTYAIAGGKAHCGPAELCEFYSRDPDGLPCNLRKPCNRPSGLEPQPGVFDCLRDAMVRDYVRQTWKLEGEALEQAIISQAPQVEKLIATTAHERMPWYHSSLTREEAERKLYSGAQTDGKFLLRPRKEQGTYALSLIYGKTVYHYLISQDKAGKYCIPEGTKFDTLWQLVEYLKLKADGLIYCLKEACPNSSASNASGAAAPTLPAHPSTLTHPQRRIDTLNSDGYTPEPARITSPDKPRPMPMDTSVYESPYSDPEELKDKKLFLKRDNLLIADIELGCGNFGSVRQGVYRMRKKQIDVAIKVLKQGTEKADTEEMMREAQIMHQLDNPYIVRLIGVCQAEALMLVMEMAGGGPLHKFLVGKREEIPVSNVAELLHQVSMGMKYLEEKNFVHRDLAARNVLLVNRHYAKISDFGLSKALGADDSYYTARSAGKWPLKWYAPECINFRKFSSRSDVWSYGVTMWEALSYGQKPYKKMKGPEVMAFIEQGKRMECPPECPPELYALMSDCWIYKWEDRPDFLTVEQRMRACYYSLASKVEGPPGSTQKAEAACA
Method in brief: as §2

Tek = target: T9, Tek (Homo sapiens, UniProt Q02763); assay: Kinase inhibition assay (33P transfer), Tek; details: read-out: Tek-1
T9 construct: Kinases are expressed as either kinase domains or full length constructs; made in house
T9 sequence (Q02763 23-1124, species assumed): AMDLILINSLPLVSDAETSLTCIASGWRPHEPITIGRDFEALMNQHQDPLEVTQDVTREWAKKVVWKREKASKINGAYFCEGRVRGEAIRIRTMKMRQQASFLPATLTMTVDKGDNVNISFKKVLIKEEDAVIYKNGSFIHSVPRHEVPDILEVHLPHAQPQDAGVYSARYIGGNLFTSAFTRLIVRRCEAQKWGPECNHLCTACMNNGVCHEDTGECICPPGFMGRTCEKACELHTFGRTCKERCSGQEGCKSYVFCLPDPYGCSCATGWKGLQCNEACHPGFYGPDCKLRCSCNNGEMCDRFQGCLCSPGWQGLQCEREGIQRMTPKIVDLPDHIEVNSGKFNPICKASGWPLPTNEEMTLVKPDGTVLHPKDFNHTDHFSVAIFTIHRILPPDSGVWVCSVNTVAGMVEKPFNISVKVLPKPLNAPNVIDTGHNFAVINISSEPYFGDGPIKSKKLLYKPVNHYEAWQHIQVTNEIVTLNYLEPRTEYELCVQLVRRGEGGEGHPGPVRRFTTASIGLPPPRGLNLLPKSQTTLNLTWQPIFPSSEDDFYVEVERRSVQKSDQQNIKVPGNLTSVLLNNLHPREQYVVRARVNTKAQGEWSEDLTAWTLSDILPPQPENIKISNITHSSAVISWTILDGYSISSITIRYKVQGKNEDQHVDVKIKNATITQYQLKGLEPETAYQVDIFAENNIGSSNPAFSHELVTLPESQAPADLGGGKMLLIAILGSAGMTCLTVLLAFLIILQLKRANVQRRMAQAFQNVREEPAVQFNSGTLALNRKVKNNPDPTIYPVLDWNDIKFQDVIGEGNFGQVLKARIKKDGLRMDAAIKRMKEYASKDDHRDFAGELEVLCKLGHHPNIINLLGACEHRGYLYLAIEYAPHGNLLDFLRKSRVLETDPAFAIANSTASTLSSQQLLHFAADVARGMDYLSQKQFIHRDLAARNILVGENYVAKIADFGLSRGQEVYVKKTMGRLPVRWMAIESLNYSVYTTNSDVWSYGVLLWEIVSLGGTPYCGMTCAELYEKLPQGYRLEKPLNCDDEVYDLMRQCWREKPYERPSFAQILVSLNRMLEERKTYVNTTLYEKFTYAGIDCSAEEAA
Method in brief: as §1

T1 sequence (P08581 25-1390): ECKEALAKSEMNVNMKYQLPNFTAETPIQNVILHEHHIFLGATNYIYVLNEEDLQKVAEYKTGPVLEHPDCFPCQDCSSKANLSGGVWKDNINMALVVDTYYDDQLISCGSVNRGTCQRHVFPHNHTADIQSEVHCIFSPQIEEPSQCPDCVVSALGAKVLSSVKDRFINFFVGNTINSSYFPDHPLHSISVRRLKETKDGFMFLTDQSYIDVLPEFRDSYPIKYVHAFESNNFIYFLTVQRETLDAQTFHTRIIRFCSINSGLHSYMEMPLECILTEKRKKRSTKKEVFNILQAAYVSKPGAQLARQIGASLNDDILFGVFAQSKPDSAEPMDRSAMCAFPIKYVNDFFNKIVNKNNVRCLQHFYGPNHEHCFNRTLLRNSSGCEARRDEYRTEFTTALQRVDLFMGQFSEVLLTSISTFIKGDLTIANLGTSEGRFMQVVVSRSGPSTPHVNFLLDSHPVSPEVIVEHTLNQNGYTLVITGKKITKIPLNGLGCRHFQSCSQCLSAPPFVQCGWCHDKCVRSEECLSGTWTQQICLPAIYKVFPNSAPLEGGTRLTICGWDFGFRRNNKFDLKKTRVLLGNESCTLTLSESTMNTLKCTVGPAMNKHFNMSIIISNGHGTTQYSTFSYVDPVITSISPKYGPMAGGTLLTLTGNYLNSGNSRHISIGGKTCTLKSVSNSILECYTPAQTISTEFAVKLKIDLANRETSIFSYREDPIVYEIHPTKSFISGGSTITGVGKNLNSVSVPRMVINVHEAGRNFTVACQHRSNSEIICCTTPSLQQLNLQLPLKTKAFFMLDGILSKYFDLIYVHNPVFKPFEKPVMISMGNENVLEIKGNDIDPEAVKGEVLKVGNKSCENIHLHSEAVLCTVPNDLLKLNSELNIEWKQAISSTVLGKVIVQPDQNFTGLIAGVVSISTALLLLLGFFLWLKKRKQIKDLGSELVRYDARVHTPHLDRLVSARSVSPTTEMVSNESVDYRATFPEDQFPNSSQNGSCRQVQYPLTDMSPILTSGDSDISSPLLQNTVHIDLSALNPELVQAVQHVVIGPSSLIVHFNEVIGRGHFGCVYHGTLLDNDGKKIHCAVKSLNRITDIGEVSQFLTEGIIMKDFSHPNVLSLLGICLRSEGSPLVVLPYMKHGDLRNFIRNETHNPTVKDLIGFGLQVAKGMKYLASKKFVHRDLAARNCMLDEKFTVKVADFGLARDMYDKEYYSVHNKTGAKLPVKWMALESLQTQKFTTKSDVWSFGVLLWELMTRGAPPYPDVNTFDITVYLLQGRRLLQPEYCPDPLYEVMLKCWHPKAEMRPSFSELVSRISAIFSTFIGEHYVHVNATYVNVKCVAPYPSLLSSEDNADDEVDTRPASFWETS

| IC50 (c-Met) [µM] | IC50 (Itk) [µM] | IC50 (EGFR) [µM] | IC50 (AKT) [µM] | IC50 (Kdr) [µM] | IC50 (Lck) [µM] | IC50 (IGFR-1) [µM] | IC50 (Zap-70) [µM] | IC50 (Tek) [µM] | Structure (SMILES) |
| --- | --- | --- | --- | --- | --- | --- | --- | --- | --- |
| > 16.2 | > 16.2 | > 16.2 | > 16.2 | 12.6 to 16.2 | > 16.2 | > 16.2 | > 16.2 | > 16.2 | COc1ccccc1Nc1ncnc(-c2ccccc2)n1 [Compound 12] |
| > 11.3 | > 11.3 | > 11.3 | 6.01 to 8.76 | 1 to 6.01 | > 11.3 | > 11.3 | > 11.3 | 6.01 to 8.76 | COc1ccc(Nc2ncnc(Nc3ccc(OCc4ccccc4)cc3)n2)cc1 [Compound 161] |
| > 12.4 | > 12.4 | > 12.4 | > 12.4 | 6.6 to 9.63 | > 12.4 | 6.6 to 9.63 | 6.6 to 9.63 | > 12.4 | CC(C)(C)OC(=O)Nc1ccc(Nc2ncnc(-c3ccccc3)n2)cc1 [Compound 19] |
| 8.76 to 11.3 | > 11.3 | 1 to 6.01 | 8.76 to 11.3 | > 11.3 | > 11.3 | > 11.3 | > 11.3 | > 11.3 | COc1cccc(Nc2ncnc(Nc3ccc(OCc4ccccc4)cc3)n2)c1 [Compound 160] |
| > 19.5 | > 19.5 | > 19.5 | > 19.5 | > 19.5 | > 19.5 | > 19.5 | > 19.5 |  | OCCCNc1ncnc(-c2ccccc2)n1 [Compound 971] |
| 10.3 to 13.3 | > 13.3 | > 13.3 | 10.3 to 13.3 | 10.3 to 13.3 | 1.18 to 7.07 | > 13.3 | > 13.3 |  | c1csc(-c2ncnc(Nc3ccc(N4CCOCC4)cc3)n2)c1 [Compound 349] |
| > 13.3 | > 13.3 | > 13.3 | > 13.3 | 1.18 to 7.07 | 1.18 to 7.07 | > 13.3 | > 13.3 |  | COc1cc(Nc2ncnc(-c3ccncc3)n2)cc(OC)c1OC [Compound 42] |
| > 16.2 | > 16.2 | > 16.2 | > 16.2 | > 16.2 | > 16.2 | > 16.2 | > 16.2 |  | OCc1ccc(Nc2ncnc(-c3ccccc3)n2)cc1 [Compound 165] |
| > 13.7 | > 13.7 | > 13.7 | > 13.7 | > 13.7 | > 13.7 | > 13.7 | > 13.7 |  | CC(C)(C)OC(=O)NCCCNc1ncnc(-c2ccccc2)n1 [Compound 17] |
| > 9.67 | > 9.67 | > 9.67 | > 9.67 | 0.859 to 5.16 | 5.16 to 7.52 | > 9.67 | > 9.67 |  | COc1cc(Nc2ncnc(-n3c(NCCCCO)nc4ccccc43)n2)cc(OC)c1OC [Compound 392] |
| 8.21 to 10.6 | > 10.6 | > 10.6 | > 10.6 | 0.938 to 5.63 | 0.938 to 5.63 | 0.938 to 5.63 | 8.21 to 10.6 |  | COc1cccc(NC(=O)Nc2ncnc(Nc3cc(OC)c(OC)c(OC)c3)n2)c1 [Compound 21] |
| > 15.1 | > 15.1 | > 15.1 | > 15.1 | > 15.1 | > 15.1 | > 15.1 | > 15.1 |  | NC(=O)c1ccc(Nc2ncnc(-c3cccs3)n2)cc1 [Compound 354] |
| > 10.3 | > 10.3 | > 10.3 | > 10.3 | 0.914 to 5.49 | 8 to 10.3 | > 10.3 | > 10.3 |  | COc1cc(Nc2ncnc(-n3c(NCCO)nc4ccccc43)n2)cc(OC)c1OC [Compound 391] |
| > 16.1 | > 16.1 | > 16.1 | > 16.1 | > 16.1 | > 16.1 | > 16.1 | > 16.1 |  | N#Cc1ccc(Nc2ncnc(-c3cccs3)n2)cc1 [Compound 356] |
